Data from patent US6225478A, “Iridoid derivatives and neovascularization inhibitors containing the same as active ingredient” (Tsumura & Co., priority 1999, dated 2001).

Experiments:
[1] = system: HUFEC; experiment: Cell Migration Assay (CMA) Test, inhibitory rate with control (-) correction; format: cell-based, human; details: Homo sapiens, 24 h, 125 μl of 0.32 mM sample solution in 4.0 ml medium, 80% or more = remarkable
Procedure, shortened: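 Confluent HUFEC monolayers were scratch-wounded, then cultured 24 h at 37 °C, 5% CO2 in M199 (2+) medium with compound added as 125 μl of a 0.32 mM solution (3.2% DMSO) per 4 ml. Giemsa-stained cells migrating into 1 mm×1 mm blocks counted; inhibition % calculated relative to control (+) and control (−) wells.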

[2] = system: human umbilical-vein endothelial cells (HUVEC); experiment: Tube Formation Assay (TFA) Test, HUVEC in collagen gel; format: cell-based; details: Homo sapiens, HUVEC, Tables 75-83; 0.32 mM sample solution; method as for Compounds 1 through 60; read-out: TFA Inhibition rate (%)
Procedure, shortened: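 Inhibition rate (%) of tube formation is computed from tube lengths against control (+) and control (-), measured after 20 h at 37 °C in M-199 with 20% FCS, 30 ng/ml b-FGF and 0.1 μM PMA. Samples were applied to HUVEC on collagen and covered by a second collagen layer (double-layer gel).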

SMILES	inhibition at 320 µM (stock) [1] [%]	inhibition at 320 µM (stock) [2] [%]
COC(=O)C1=CO[C@@H](OC(=O)NCc2cccc(F)c2)[C@H]2[C@@H]1CC[C@@H]2C [I-232]	6.5	2.9
COC(=O)C1=CO[C@@H](OC(=O)NCc2cccc(C(F)(F)F)c2)[C@H]2[C@@H]1CC[C@@H]2C [I-233]	5.5	4.1
COC(=O)C1=CO[C@@H](OC(=O)NCc2ccc3c(c2)OCO3)[C@H]2[C@@H]1CC[C@@H]2C [I-234]	7.3	7.3
COC(=O)C1=CO[C@@H](OC(=O)N2CCN(c3cccc(C(F)(F)F)c3)CC2)[C@H]2[C@@H]1CC[C@@H]2C [I-235]	6.5	9.3
COC(=O)C1=CO[C@@H](OC(=O)NCCS)[C@H]2[C@@H]1CC[C@@H]2C [I-236]	28.1	10.4
CCOC(=O)CCCNC(=O)O[C@@H]1OC=C(C(=O)OC)[C@H]2CC[C@H](C)[C@@H]12 [I-237]	6.9	7.8
CONC(=O)O[C@@H]1OC=C(C(=O)OC)[C@H]2CC[C@H](C)[C@@H]12 [I-238]	5.9	17.8
COC(=O)C1=CO[C@@H](OC(=O)N(C)C)[C@H]2[C@@H]1CC[C@@H]2C [I-239]	7.8	5.7
COC(=O)C1=CO[C@@H](OC(=O)N(CCO)CCO)[C@H]2[C@@H]1CC[C@@H]2C [I-240]	8.5	7.4
COC(=O)C1=CO[C@@H](OC(=O)NCC2CC2)[C@H]2[C@@H]1CC[C@@H]2C [I-241]	12.6	5.1
COC(=O)C1=CO[C@@H](OC(=O)N2CC=C(c3ccccc3)CC2)[C@H]2[C@@H]1CC[C@@H]2C [I-242]	5.1	4.8
CCOc1ccccc1N1CCN(C(=O)O[C@@H]2OC=C(C(=O)OC)[C@H]3CC[C@H](C)[C@@H]23)CC1 [I-243]	6.7	8.1
COC(=O)C1=CO[C@@H](OC(=O)NCCCCl)[C@H]2[C@@H]1CC[C@@H]2C [I-244]	19.5	5.2
COC(=O)C1=CO[C@@H](OC(=O)NCc2ccc(Br)cc2)[C@H]2[C@@H]1CC[C@@H]2C [I-245]	27.3	6.3
COC(=O)CNC(=O)O[C@@H]1OC=C(C(=O)OC)[C@H]2CC[C@H](C)[C@@H]12 [I-246]	23.4	4.9
COC(=O)C1=CO[C@@H](OC(=O)NC2Cc3ccccc3C2)[C@H]2[C@@H]1CC[C@@H]2C [I-247]	23.4	9.7
COC(=O)C1=CO[C@@H](OC(=O)NCCc2ccc(O)c(OC)c2)[C@H]2[C@@H]1CC[C@@H]2C [I-248]	2.2	5.7
COC(=O)C1=CO[C@@H](OC(=O)NC(CO)CO)[C@H]2[C@@H]1CC[C@@H]2C [I-249]	44	11.1
COC(=O)C1=CO[C@@H](OC(=O)N2CCC2)[C@H]2[C@@H]1CC[C@@H]2C [I-250]	8	4.1
COC(=O)C1=CO[C@@H](OC(=O)N2CCN(c3ccccc3F)CC2)[C@H]2[C@@H]1CC[C@@H]2C [I-251]	8.7	7.9
COC(=O)C1=CO[C@@H](OC(=O)NCc2nc3ccccc3[nH]2)[C@H]2[C@@H]1CC[C@@H]2C [I-252]	8.2	5.4

SMILES	inhibition at 320 µM (stock) [1] [%]	inhibition at 320 µM (stock) [2] [%]
COC(=O)C1=CO[C@@H](OC(=O)NCCSCc2ccccc2)[C@H]2[C@@H]1CC[C@@H]2C [I-253]	25.1	5.7
CNC(=O)O[C@@H]1OC=C(C(=O)OC)[C@H]2CC[C@H](C)[C@@H]12 [I-254]	4.7	4.6
COC(=O)C1=CO[C@@H](OC(=O)Nc2ccc(Cl)c(Cl)c2)[C@H]2[C@@H]1CC[C@@H]2C [I-255]	6.5	6
COC(=O)C1=CO[C@@H](OC(=O)Nc2ccc(F)cc2F)[C@H]2[C@@H]1CC[C@@H]2C [I-256]	5	4
COC(=O)C1=CO[C@@H](OC(=O)Nc2ccccc2F)[C@H]2[C@@H]1CC[C@@H]2C [I-257]	8	3.5
COC(=O)C1=CO[C@@H](OC(=O)NCCCl)[C@H]2[C@@H]1CC[C@@H]2C [I-258]	5.7	3.8
COC(=O)C1=CO[C@@H](OC(=O)Nc2ccc(Br)cc2)[C@H]2[C@@H]1CC[C@@H]2C [I-259]	5	2.9
COC(=O)C1=CO[C@@H](OC(=O)Nc2ccc(Cl)cc2)[C@H]2[C@@H]1CC[C@@H]2C [I-260]	8.9	2.5
COC(=O)C1=CO[C@@H](OC(=O)NC(C)C)[C@H]2[C@@H]1CC[C@@H]2C [I-261]	37.5	32.1
CCNC(=O)O[C@@H]1OC=C(C(=O)OC)[C@H]2CC[C@H](C)[C@@H]12 [I-262]	6.3	8.8
COC(=O)C1=CO[C@@H](OC(=O)Nc2ccc(OC)cc2)[C@H]2[C@@H]1CC[C@@H]2C [I-263]	7.2	5.5
COC(=O)C1=CO[C@@H](OC(=O)Nc2ccc(F)cc2)[C@H]2[C@@H]1CC[C@@H]2C [I-264]	6.7	29.2
COC(=O)C1=CO[C@@H](OC(=O)Nc2ccc(Cl)cc2C(F)(F)F)[C@H]2[C@@H]1CC[C@@H]2C [I-265]	6.3	3.3
COC(=O)C1=CO[C@@H](OC(=O)Nc2ccc(OC(F)(F)F)cc2)[C@H]2[C@@H]1CC[C@@H]2C [I-266]	9.4	4.9
COC(=O)C1=CO[C@@H](OC(=O)Nc2cccc(C#N)c2)[C@H]2[C@@H]1CC[C@@H]2C [I-267]	14.9	5.8
CCOC(=O)c1ccc(NC(=O)O[C@@H]2OC=C(C(=O)OC)[C@H]3CC[C@H](C)[C@@H]23)cc1 [I-268]	8.4	7.6
COC(=O)C1=CO[C@@H](OC(=O)Nc2ccc([N+](=O)[O-])cc2)[C@H]2[C@@H]1CC[C@@H]2C [I-269]	19.5	8.3
COC(=O)C1=CO[C@@H](OC(=O)Nc2ccc(C)cc2)[C@H]2[C@@H]1CC[C@@H]2C [I-270]	28.7	5.9
COC(=O)C1=CO[C@@H](OC(=O)Nc2ccccc2)[C@H]2[C@@H]1CC[C@@H]2C [I-271]	21.6	35.1
COC(=O)C1=CO[C@@H](OC(=O)NC(=O)c2ccccc2)[C@H]2[C@@H]1CC[C@@H]2C [I-272]	5.7	7.9
COC(=O)C1=CO[C@@H](OC(=O)Nc2cccc(C(C)=O)c2)[C@H]2[C@@H]1CC[C@@H]2C [I-273]	3.8	17.5
